Laboratory results as given in ChEMBL document CHEMBL1144172, “Discovery of novel series of benzoic acid derivatives containing biphenyl ether moiety as potent and selective human beta(3)-adrenergic receptor agonists: Part IV” (Bioorg Med Chem Lett, 2008).

What was measured:
[1] = molecular target: Beta-3 adrenergic receptor (Homo sapiens, UniProt P13945); test: Agonist activity at human cloned adrenergic beta3 receptor expressed in CHO cells assessed as cAMP accumulation; type: functional, cell-based
Beta-3 adrenergic receptor (Homo sapiens, UniProt P13945), sequence (P13945 whole entry): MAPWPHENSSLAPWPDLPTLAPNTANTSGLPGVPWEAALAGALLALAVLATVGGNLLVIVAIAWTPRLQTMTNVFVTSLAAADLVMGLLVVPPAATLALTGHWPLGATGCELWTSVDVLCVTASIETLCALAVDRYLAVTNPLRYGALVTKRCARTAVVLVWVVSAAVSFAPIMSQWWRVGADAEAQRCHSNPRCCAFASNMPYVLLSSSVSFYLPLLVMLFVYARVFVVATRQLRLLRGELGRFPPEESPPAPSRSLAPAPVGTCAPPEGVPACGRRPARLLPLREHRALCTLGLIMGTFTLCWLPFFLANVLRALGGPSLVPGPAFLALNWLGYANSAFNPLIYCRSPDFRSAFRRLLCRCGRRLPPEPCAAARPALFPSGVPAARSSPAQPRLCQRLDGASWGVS

CHO = test: Selectivity for human cloned adrenergic beta-1 receptor over human cloned adrenergic beta3 receptor expressed in CHO cells; type: cell-based
[2] = molecular target: Beta-3 adrenergic receptor (Canis lupus familiaris, UniProt O02662); test: Agonist activity at dog cloned adrenergic beta3 receptor expressed in CHO cells assessed as cAMP accumulation; type: functional, cell-based
Beta-3 adrenergic receptor (Canis lupus familiaris, UniProt O02662), sequence (O02662 whole entry): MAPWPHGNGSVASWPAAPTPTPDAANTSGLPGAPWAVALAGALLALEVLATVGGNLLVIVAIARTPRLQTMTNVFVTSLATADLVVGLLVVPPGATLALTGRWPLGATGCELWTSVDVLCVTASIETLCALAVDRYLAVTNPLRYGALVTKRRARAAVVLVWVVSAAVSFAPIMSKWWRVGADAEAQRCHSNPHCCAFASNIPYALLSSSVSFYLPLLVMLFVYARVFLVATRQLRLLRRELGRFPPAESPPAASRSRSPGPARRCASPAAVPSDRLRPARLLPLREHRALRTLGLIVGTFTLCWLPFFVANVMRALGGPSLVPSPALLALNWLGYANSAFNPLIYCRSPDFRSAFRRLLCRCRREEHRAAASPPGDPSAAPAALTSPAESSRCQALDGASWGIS

[3] = molecular target: Beta-3 adrenergic receptor (Canis lupus familiaris) (UniProt O02662); test: Agonist activity at dog cloned adrenergic beta3 receptor assessed as inhibition of carbachol-induced increase in intravesical pressure at 32 ug/kg, iv; type: functional
Beta-3 adrenergic receptor (Canis lupus familiaris), sequence (O02662 whole entry): as above

[4] = molecular target: Beta-1 adrenergic receptor (Homo sapiens, UniProt P08588)
Beta-1 adrenergic receptor, sequence (P08588 whole entry): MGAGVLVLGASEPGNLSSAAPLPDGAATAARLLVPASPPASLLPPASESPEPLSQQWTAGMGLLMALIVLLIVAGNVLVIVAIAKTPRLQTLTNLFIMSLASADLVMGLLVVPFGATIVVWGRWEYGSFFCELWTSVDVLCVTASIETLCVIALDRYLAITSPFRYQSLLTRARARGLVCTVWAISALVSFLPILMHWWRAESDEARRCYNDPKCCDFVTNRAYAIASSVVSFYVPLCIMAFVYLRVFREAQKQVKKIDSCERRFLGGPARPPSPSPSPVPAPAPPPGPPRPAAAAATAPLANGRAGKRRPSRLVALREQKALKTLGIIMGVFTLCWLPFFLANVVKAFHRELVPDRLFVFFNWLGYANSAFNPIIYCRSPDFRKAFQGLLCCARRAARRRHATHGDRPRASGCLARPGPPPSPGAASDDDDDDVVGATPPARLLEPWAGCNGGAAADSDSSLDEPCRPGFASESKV
Description: Agonist activity at human cloned adrenergic beta-1 receptor expressed in CHO cells assessed as cAMP accumulation

[5] = molecular target: Beta-3 adrenergic receptor (Canis lupus familiaris) (UniProt O02662); test: Agonist activity at dog cloned adrenergic beta3 receptor assessed as inhibition of carbachol-induced increase in intravesical pressure at 10 ug/kg, iv; type: functional

Structure (SMILES) | EC50 [1] | EC50 [2] | inhibition [3] | EC50 [4] | inhibition [5] | Ratio EC50 (CHO)
O=C(O)c1cc(Oc2cccc(CCNC[C@H](O)c3cccc(Cl)c3)c2)ccc1N1CCCC1=O | 6.6 nM | 1.9 nM | 84% | > 1000 nM | – | > 152
O=C(O)c1cc(Oc2cccc(CCNC[C@H](O)c3cccnc3)c2)ccc1F | 31 nM | – | – | 840 nM | – | 27
O=C(Nc1ccc(Oc2cccc(CCNC[C@H](O)c3cccc(Cl)c3)c2)cc1C(=O)O)c1ccccc1 | 8.6 nM | – | – | 130 nM | – | 15
C[C@H](Cc1cccc(Oc2cccc(C(=O)O)c2)c1)NC[C@H](O)c1cccc(Cl)c1 | 1.9 nM | – | – | 28 nM | – | 15
CC(C)(C)C(=O)Nc1ccc(Oc2cccc(CCNC[C@H](O)c3cccc(Cl)c3)c2)cc1C(=O)O | 4.6 nM | 1.6 nM | 30% | 620 nM | – | 135
CC(=O)Nc1ccc(Oc2cccc(CCNC[C@H](O)c3cccnc3)c2)cc1C(=O)O | 12 nM | – | – | 190 nM | – | 16
O=C(O)c1cc(NC(=O)c2ccccc2)cc(Oc2cccc(CCNC[C@H](O)c3cccc(Cl)c3)c2)c1 | 21 nM | – | – | 190 nM | – | 9
CC(=O)Nc1cc(Oc2cccc(CCNC[C@H](O)c3cccc(Cl)c3)c2)cc(C(=O)O)c1 | 6.5 nM | – | – | 240 nM | – | 37
O=C(O)c1ccc(Oc2cccc(CCNC[C@H](O)c3cccc(Cl)c3)c2)cc1 | 60 nM | – | – | > 100 nM | – | –
COc1ccc(Oc2cccc(CCNC[C@H](O)c3cccnc3)c2)cc1C(=O)O | 56 nM | – | – | 690 nM | – | 12

Continued, in another order:

EC50 [1] | EC50 [2] | inhibition [3] | EC50 [4] | inhibition [5] | Structure (SMILES) | Ratio EC50 (CHO)
11 nM | – | – | 510 nM | – | COc1ccc(Oc2cccc(CCNC[C@H](O)c3cccc(Cl)c3)c2)cc1C(=O)O | 46
13 nM | – | – | 550 nM | – | Cc1ccc(Oc2cccc(CCNC[C@H](O)c3cccc(Cl)c3)c2)cc1C(=O)O | 42
7.2 nM | – | – | 380 nM | – | CC(=O)Nc1ccc(Oc2cccc(CCNC[C@H](O)c3cccc(Cl)c3)c2)cc1C(=O)O | 53
9.4 nM | – | – | 140 nM | – | O=C(O)c1cc(Oc2cccc(CCNC[C@H](O)c3cccc(Cl)c3)c2)ccc1F | 15
14 nM | – | – | > 100 nM | – | O=C(O)c1cccc(Oc2cccc(CCNC[C@H](O)c3cccc(Cl)c3)c2)c1 | > 7.1
3.4 nM | 3.2 nM | – | 810 nM | 43% | CC(C)Oc1ccc(Oc2cccc(CCNC[C@H](O)c3cccc(Cl)c3)c2)cc1C(=O)O | 238
9.5 nM | – | – | 64 nM | – | O=C(O)c1cc(Oc2cccc(CCNC[C@H](O)c3cccc(Cl)c3)c2)ccc1Cl | 6.7
